Source: patent US9844556B2, “Preventive/therapeutic method and preventive/therapeutic agent for complications after cataract surgery” (KOWA COMPANY, LTD., priority 2015, dated 2017)

Columns and labels:
[1] = tested on: HLEpiC; experiment: Determination of G-actin/F-actin ratio using G-Actin/F-Actin In Vivo Assay Kit; assay type: cell-based, human; conditions: 2 μM, about an hour; control 1.16
Procedure: HLEpiC was diluted with a medium (Epithelial Cell Medium), and dispensed to a Poly-L-lysine coated T-75 flask at about 5000 cells/cm^2, and cultured in a carbon dioxide incubator (37° C., 5% CO2) until about 50% confluent. A test substance, a positive control or the medium (control) at each concentration given below was added to each flask at 20 mL.
(§1) Test substance: Ripasudil with a concentration of […], 100 μM or 1 mM,
Positive control: CD with a concentration of 2 μM, and
These were treated in a carbon dioxide incubator (37° C., 5% CO2) for about an hour.
To 20 mL of Lysis and F-actin stabilization buffer was added 200 μL of 100 mM ATP stock solution and 200 μL of 100× Protease inhibitor cocktail stock to produce LAS2 buffer, and this was incubated in a carbon dioxide incubator (37° C.) for about 30 minutes. Warmed LAS2 buffer was added at 2.5 mL to each flask in which the medium was removed with vacuum suction.
Next, adherent HLEpiC was completely scraped with a cell scraper and transferred with the LAS2 buffer to a conical tube, and HLEpiC was crushed with a micropipette (hereinafter, referred to as cell solution). This cell solution was incubated in a carbon dioxide incubator (37° C.) for about 10 minutes and then centrifuged for 10 minutes (2000 rpm, room temperature). The supernatant was dispensed into an ultracentrifugal tube at 1.8 mL and centrifuged for an hour with an ultracentrifuge (100,000× g, 37° C.). At this time, F-actin is precipitated and G-actin remains in the supernatant.
The supernatant was transferred to a conical tube while being careful not to suck F-actin precipitates.
To precipitates of each sample was added 1.8 mL of F-actin depolymerizing buffer, and this was incubated under ice-cold conditions for an hour to depolymerize actin.
From each supernatant sample and precipitate sample, 100 μL each was put in a 1.5 mL Eppendorf tube, and 25 μL of 5×SDS sample buffer was added and stirred.
Each sample was boiled in a boiling water bath for 5 minutes.
Each sample was subjected to SDS-polyacrylamide gel electrophoresis, followed by Western blotting.
Next, after treatment using a Western blotting detection reagent (ECL Select Western Blotting Detection Reagent, GE Healthcare Japan), proteins were detected using a Lumino image analyzer. The quantities of G-actin and F-actin were determined using an analysis software (ImageQuant TL, GE Healthcare Japan) and the G-actin/F-actin ratio was calculated.
The variation in the quantity of F-actin required to form actin stress fibers was evaluated by comparison with the G-actin/F-actin ratio of untreated (Control) cells.

[2] = tested on: Human lens epithelial cells (HLEpiC); experiment: Inhibitory action on actin stress fiber formation (phalloidin staining, confocal microscopy); assay type: cell-based; conditions: treated about an hour
Procedure: Human lens epithelial cells (HLEpiC (ScienCell Research Laboratories)) were diluted with a medium (Epithelial Cell Medium (ScienCell Research Laboratories)), dispensed to each well of Poly-L-lysine (ScienCell Research Laboratories) coated Imaging Chamber CG at 100 μL/well (about 5000 cells/cm^2), and cultured in a carbon dioxide incubator (37° C., 5% CO2) until about 50% confluent. The medium was removed with vacuum suction and a test substance, a positive control, a comparative control, or the medium (control) at each concentration given below was added to each well at 300 μL/well:
Test substance: Ripasudil with a concentration of 10 μM, 100 μM or 1 mM,
Positive control: Cytochalasin D with a concentration of 2 μM,
These were treated in a carbon dioxide incubator (37° C., 5% CO2) for about an hour, and then washed once with the medium. 4% Paraformaldehyde Phosphate Buffer Solution (Wako Pure Chemical Industries, Ltd.) (hereinafter, referred to as a fixative solution) was added at 300 μL/well, and fixation was carried out at room temperature for 2 minutes. After washing with the medium, 0.5% Triton X-100 (Roche Diagnostics K.K.) was added at 300 μL/well, and penetrated at room temperature for 2 minutes. After washing with the medium, the fixative solution was added at 300 μL/well, and fixation was carried out at room temperature for 20 minutes.
Separately, 25 μL of 14 μM Actin-Stain™ 555 phalloidin (Cytoskeleton, Inc.) (hereinafter, referred to as Phalloidin) was added to 3475 μL of 10 mM phosphate buffered saline (Wako Pure Chemical Industries, Ltd.) to produce 100 nM Phalloidin.
This 100 nM Phalloidin was added to each well washed with the medium at 200 μL/well, and staining was carried out at room temperature in a dark place for about 60 minutes.
After washing with the medium, the chamber was removed, and […] Mounting Medium with DAPI (Vector Laboratories, Inc.) was dropped onto a cover glass with a few drops. A slide glass was placed thereon and this was left to stand at room temperature in a dark place for 30 minutes or more, and adhesion and nuclear staining were carried out and then observed by a confocal laser scanning microscope.

[3] = tested on: HLEpiC; experiment: Inhibitory action on cell migration (Oris Cell Migration plate); assay type: cell-based, human; conditions: about 24 and 48 hours after treatment
Procedure: HLEpiC was diluted with a medium (Epithelial Cell Medium) and dispensed to Poly-L-lysine coated Oris™ Cell Migration 96 well plate, to which a stopper was firmly attached, at 50 μL/well (25000 cells/well) and cultured in a carbon dioxide incubator (37° C., 5% CO2) for 24 hours. The stopper was removed, and after brief washing with the medium, a solution obtained by adding 5 μL of 10 mM Cell Tracker Green Fluorescent Probe (Lonza Walkersville, Inc.) to 4995 μL of the medium was added at 100 μL/well, and the cells were stained in a carbon dioxide incubator (37° C., 5% CO2) for about 30 minutes. After brief washing with the medium, the medium was further added and the cells were cultured in a carbon dioxide incubator (37° C., 5% CO2) for about 30 minutes.
After brief washing with the medium, a test substance, a positive control, a comparative control or the medium (control) at each concentration given below was added at 100 μL/well.
as §1
Positive control: CD with a concentration of 2 μM,
These were cultured in a carbon dioxide incubator (37° C., 5% CO2). The state of HLEpiC in the Detection Zone in each sample was observed by a confocal laser scanning microscope about 24 hours after the treatment and 48 hours after the treatment.

[4] = tested on: HLEpiC; experiment: Reversibility of inhibition of cell migration after removal; assay type: cell-based, human; conditions: for time after removal at which Detection Zone was filled with HLEpiC: then removal
Procedure: After the operation in Example 4, the test substance, the positive control, or the comparative control was removed, and after brief washing with the medium, the medium was added at 100 μL/well, and the cells were cultured in a carbon dioxide incubator (37° C., 5% CO2).

[5] = tested on: Human lens epithelial cells (HLEpiC); experiment: Reversibility of inhibition of actin stress fiber formation after removal; assay type: cell-based; conditions: recultured about 24 hours after removal
Procedure: After removal of the test substance, positive control or comparative control in Example 1, the cells were recultured for about another 24 hours, treated in accordance with the operation in Example 1, and then observed by a confocal laser scanning microscope in the same manner as in Example 1 to observe the reversibility of actin stress fibers.

[6] = tested on: Soemmerring's ring, posterior capsule opacification (PCO); conditions: cited from earlier work
[7] = tested on: myofibroblasts; conditions: cited from earlier work
[8] = tested on: bovine lens cells; conditions: cited from earlier work
[9] = tested on: hyalocyte-containing collagen gel; conditions: cited from earlier work

## C=C1[C@@H](C)[C@H]2[C@H](Cc3ccccc3)NC(=O)[C@]23[C@H](OC(C)=O)/C=C/[C@@](C)(O)C(=O)[C@@H](C)C/C=C/[C@H]3[C@@H]1O [Cytochalasin D, reference compound]
[1]
  G-actin/F-actin ratio: 25.03
[2]; 2 μM
  actin stress fibers (observation): significantly disappear
[3]; 2 μM
  cell migration into Detection Zone (observation): inhibitory action on cell migration was further recognized
[4]; 2 μM treatment
  time after removal at which Detection Zone was filled with HLEpiC: about 48 hours
[5]; 2 μM
  reversibility of actin stress fibers: recovered

## CC1CNCCN1S(=O)(=O)c1cccc2cnccc12 (stereo not shown) [H-7]
[6]
  effect on posterior capsule opacification (PCO): ineffective
  resolving Soemmerring's ring: effective

## Cc1cncc2cccc(S(=O)(=O)N3CCCNC[C@@H]3C)c12 [H-1152]
[7]
  transdifferentiation and contraction of myofibroblasts induced by TGF-β: inhibit the transdifferentiation and contraction

## O=S(=O)(c1cccc2cnccc12)N1CCCNCC1 [HA-1077]
[7]
  transdifferentiation and contraction of myofibroblasts induced by TGF-β: inhibit the transdifferentiation and contraction

## O=c1[nH]ccc2c(S(=O)(=O)N3CCCNCC3)cccc12 [HF, Hydroxyfasudil]
[8]
  contraction induced by cytokines such as PDGF-BB and TGF-β2: inhibited contraction

## O=S(=O)(c1cccc2c(I)cccc12)N1CCCNCC1 [ML-7]
[7]
  transdifferentiation and contraction of myofibroblasts induced by TGF-β: inhibit the transdifferentiation and contraction

## C[C@@H](N)[C@H]1CC[C@H](C(=O)Nc2ccncc2)CC1 [Y-27632, reference compound]
[7]
  transdifferentiation and contraction of myofibroblasts induced by TGF-β: inhibit the transdifferentiation and contraction
[8]
  contraction induced by cytokines such as PDGF-BB and TGF-β2: inhibited contraction
[2]; 1 mM
  actin stress fibers (observation): disappear
[3]; 1 mM
  cell migration into Detection Zone (observation): inhibitory action on cell migration was also recognized
[4]; 1 mM treatment, about 48 hours after removal
  state of Detection Zone about 48 hours after removal: not filled with HLEpiC
[4]; 1 mM treatment
  time after removal at which Detection Zone was filled with HLEpiC: 116 h
[5]; 1 mM
  reversibility of actin stress fibers: recovered

## O=S(=O)(c1cccc2cnccc12)N1CCCNCC1 [fasudil]
[9]
  hyalocyte-containing collagen gel contraction: inhibits
